Results reported in patent US20090226412A1, “AGENT FOR REDUCTION OF BLEEDING IN CEREBROVASCULAR DISORDER” (ONO PHARMACEUTICAL CO., LTD.,, priority 2005, published 2009).
Like-named read-outs stand apart in the source and are kept apart here.

Experiments:
[1] = Influence of PARP inhibitor on bleeding time (rat tail cut); conditions: male SD rat, intravenous bolus, tail tip cut 5 minutes after administration, 30 minutes at a maximum; compound A 30 mg/kg, heparin 100 U/kg; saline control about 15 minutes
Method: (§2) A rat (male Sprague Dawley (SD) rat, 7 weeks old; Shimizu Laboratory Supplies Co., Ltd. (SLC))) was anesthetized with urethane (1.2 g/6 mL/kg, i.p.), and then the animal was placed on an incubation mat (Microtemp, Seabrook Medical Systems) set to 37° C. after indwelling a catheter (EMS cutdown tube, JMS Co., Ltd.) made of vinyl chloride in a left femoral vein for administration of a test substance. […] Five minutes after the administration, a tip of the tail was cut at the position of 2 mm with a razor (single-edged feather), and immediately, the tail was immersed in saline (Otsuka normal saline) warmed to 37° C. Finally, the time until the hemorrhage was stopped (30 minutes at a maximum) was measured, which was regarded as bleeding time.

[2] = system: cerebral hemorrhage model with the use of SHR; test: Cerebral hemorrhage in MCA occlusion-recanalization model, intracerebral hemoglobin by Drabkin's reagent; format: in vivo, rat; conditions: 3 mg/kg/h continuous i.v. for 9 hours right after occlusion; measured 24 hours after MCA occlusion; sham 13.0±1.1, saline 25.5±2.2
Method: (§1) For the animal, a male spontaneously hypertensive rat (hereinafter abbreviated to SHR) (14 to 15 week old); Japan Charles River) was used. The preparation of middle cerebral artery (hereinafter abbreviated to MCA) occlusion-recanalization model of rat was performed according to the method of Koizumi, et al., (in Stroke 8: 1-7, 1986). In particular, the rat was subjected to anesthetic induction by 4% halothane (halothane vaporizer, Shinano Co., Ltd.) in 30% oxygen/70% air. The anesthesia was maintained by means of 2.5% halothane. The animal was placed in a dorsal position. The dissection of anterior neck midline was performed, the left side of the common carotid artery and the external carotid artery were exfoliated from the surrounding connective tissue around the left carotid artery bifurcation, and then a thread was hooked around the artery to ligate, respectively. Afterwards, the left internal carotid artery was exfoliated from the surrounding connective tissue, and then a thread was hooked around the artery. […] An amount of cerebral hemorrhage was measured 24 hours after the MCA occlusion.
An amount of cerebral hemorrhage was measured on the basis of the content of intracerebral hemoglobin (Hb) as an indicator according to a method of Asahi et al. (J Cereb Blood Flow Metab 20: 452-457, 2000)). […] Afterwards, absorbance was measured at 540 nm of photometry wavelength. […]

[3] = system: cerebral hemorrhage model with the use of SHR; test: Cerebral hemorrhage in MCA occlusion-recanalization model, intracerebral hemoglobin by ELISA; format: in vivo, rat; conditions: 24 hours after MCA occlusion, sham 4.5±0.74, saline 19.6±2.21
Method: as §1, with “artery. The range of about 5 mm from the tip of a 4-0 nylon thread for surgery (NC sterilization operation thread, Nichiyo industry Co., Ltd.) (25 mm long) was silicon-coated with an impression material for dentistry (mixture solution of XANTOPREN VL plus and OPTOSIL-XANTOPREN ACTIVATOR, Heraeus Dental Material Co., Ltd.). Then the thread was inserted to the left carotid artery from the left carotid artery bifurcation. Then, the origin part of the left MCA was occluded by means of fixing with a Sugita type clip (Mizuho Medical Industry Co., Ltd.). Nine hours after the occlusion, rat was subjected to anesthetic induction with 4% halothane in 30% oxygen/70% air. The anesthesia was maintained by means of 2.5% halothane.” for “artery.”
In addition, intracerebral hemoglobin content can be also measured by using the following methods, in particular, an enzyme-linked immunosorbent assay (ELISA). […]

[4] = system: normal human umbilical cord vein endothelial cell; test: Effect on vascular endothelial cell death induced by hydrogen peroxide (WST-1 method); format: cell-based; conditions: 0.5 mM hydrogen peroxide, 6 hours, compound added 15 minutes before
Method: A normal human umbilical cord vein endothelial cell (Cat. No. CRL-1730; Dainippon Pharmaceutical Co., Ltd.) was cultured in serum-containing liquid culture medium for vascular endothelial cell (Nissui Pharmaceutical Co., Ltd.) under conditions of 37° C., 5% CO2. The exchange of the culture fluid was performed every other day. The cells proliferated to confluent state were sub-cultured. 5×10^4 cells/mL of cell suspension was disseminated in an amount of 500 μL/well to a gelatin-coated 24 well plate (Iwaki). A few days later, the culture medium was removed after confirming that the cells were proliferated to confluent state, and changed to 480 μL/well of Dulbecco's Modified Eagle's Medium (DMEM; GIBCO-BRL)). The compound A was adjusted to become 50 times larger than the addition final concentration in DMEM after the dissolution of the compound A to dimethyl sulfoxide (DMSO). The sterilization was performed by using 0.22 μm filter for filtration sterilization (Millex, MILLIPORE). […]
The evaluation was performed by means of WST-1 method (modulated MTT method) with the use of Cell Counting Kit (DOJINDO). […] After that, 200 μL/well of the culture supernatant was collected, and then the absorbance (450 nm) was measured. The cell death inhibitory rate of the test substance treated group was calculated, regarding that the cell survival rate of the control group (untreated group) as a standard (100%).

[5] = rat, in vivo, iv, 30 mg/kg
Method: as §2

bleeding time [1] [min] | Compound | content of intracerebral hemoglobin [2] [µL] | content of intracerebral hemoglobin ([3]; 1 mg/kg/h) [µg/mL] | content of intracerebral hemoglobin ([3]; 3 mg/kg/h) [µg/mL] | content of intracerebral hemoglobin ([3]; 10 mg/kg/h) [µg/mL] | inhibitory effect of the vascular endothelial cell disorder (cell death inhibitory rate) [4] | bleeding time [5]
≥ 30 | heparin | – | – | – | – | – | –
– | O=C(Cc1n[nH]c(=O)c2c1CCCC2)NCCCCN1CCOCC1 [compound A, 4-(N-(4-(morpholin-4-yl)butyl)carbamoylmethyl)-5,6,7,8-tetrahydrophthalazin-1(2H)-one] | 17.7 ± 1.3 | 15.4 ± 2.19 | 15.5 ± 2.14 | 10.3 ± 1.24 | showed an inhibitory effect of the vascular endothelial cell disorder dose-dependently | about 15 minutes
